In patent US20050090531A1, “MAG expression promoters” (priority 1999, published 2005):

Columns and labels:
Format in all cases: cell-based, rat
[1] = system: myelination of axon in co-cultured DRG nerve cells and Schwann cells; test: Myelination of axon in co-culture of DRG nerve cells and Schwann cells (Sudan Black B myelin staining), Experimental Example 1; details: 2 weeks of co-culture
Procedure: The preparation of nerve cell followed the method of Seung U. Kim (Experimental Protocols for Brain and Nerve—From cultured cell to functional analysis, ed. Katsuhiko Mikoshiba, Takao Shimizu, Yodosha). That is, an embryo was taken out from a 18-day pregnant female rat (Crj: CD(SD)IGS), from which dorsal spinal nerve root ganglia (hereinafter to be referred to as DRG) was removed under a stereoscopic microscope. DRG was treated with 0.25% trypsin and DNase I at 37° C. to disperse the cells. Adherent cells other than nerve cells were removed and the cells (5000 cells) were plated on a polylysine-coated plate. The cells were cultured in DMEM containing 10% FCS supplemented with the nerve growth factor (hereinafter to be referred to as NGF, 50 ng/ml) in a CO2 incubator. After 3 days of culture, the medium was changed to one containing Ara-C (1 μmol/l) to remove proliferative cells other than the nerve cells.
The preparation of Schwann cells followed the method of Ichiro Matsuoka (Springer Neuroscience Lab Manual 1, ed. Hiroshi Hatanaka, Springer-Verlag Tokyo). That is, the sciatic nerve of a neonatal rat (1 to 3 days postnatal, (Crj: CD(SD)IGS)) was removed under a stereoscopic microscope and adventitia was removed. By treating with trypsin/collagenase and DNase I in CMF-HBSS, the cells were dispersed. Using a culture flask, the cells were cultured in DMEM containing 10% FCS in a CO2 incubator. After culturing in a medium containing Ara-C, the cells were recovered and the cell suspension was treated successively with anti-Thy 1.1 and rabbit complement to remove cells other than the Schwann cells. Using a collagen-coated culture flask, the cells were cultured in DMEM containing 10% FCS in a CO2 incubator.
After 1 week from the start of the culture of DRG nerve cells, Schwann cells (20,000 cells) were plated on a plate in which DRG nerve cells had been cultured. he medium for co-culture was DMEM containing 2 μmol/l f forskolin, 50 ng/ml of NGF and 10% FCS. […]

[2] = system: myelin-related glycoprotein (MAG); test: MAG expression in DRG nerve cell/Schwann cell co-culture by immunoblotting, concentration dependence, Experimental Example 2; details: tested at 1, 3, 10 or 30 μmol/l, added every 2 days for 2 weeks; immunoblot, semi-quantitative
Procedure: According to the method described in Experimental Example 1, DRG nerve cells and Schwann cells were co-cultured. A DMSO solution containing the compound of the present invention (Y-128, 1, 3, 10 or 30 μmol/l) or ascorbic acid (50 μg/ml) as a positive control compound was added to the medium every 2 days for 2 weeks. As a negative control compound, the vehicle DMSO was added in the same manner. After 2 weeks from the start of the addition of the compound, the medium was removed and a sample buffer containing sodium dodecyl sulfate (SDS) was added to the well for solubilization of the cells.
A part thereof was separated by polyacrylamide gel electrophoresis and the migrated protein was transferred to a PVDF membrane. By immunoblotting and chemiluminescence, the objective protein was detected on an X ray film. A band detected at about 100 kDa migration was identified as a signal of myelin-related glycoprotein (MAG). The X ray film was scanned and the image was imported to a computer, and the expression of MAG was semi-quantitatively determined using an analysis software, ImageQuaNT (Molecular Dynamics). […] From the above-mentioned Experimental Example, it was clarified that the compound of the present invention (Y-128) increased the expression of MAG from the concentration of 3 μmol/l.

[3] = system: myelin-related glycoprotein (MAG); test: Time-course of MAG expression in DRG nerve cell/Schwann cell co-culture, Experimental Example 3; details: 10 μmol/ml, added every 2 days
Procedure: According to the method described in Experimental Example 1, DRG nerve cells and Schwann cells were co- cultured. A DMSO solution containing the compound of the present invention (Y-128, […]) or ascorbic acid (50 μg/ml) as a positive control compound was added to the medium every 2 days. The medium DMSO was added in the same manner as was the negative control compound. In the same manner as in Experimental Example 2, MAG was quantitatively determined before addition of the compounds and 3, 6, 9, 12, 15 and 18 days after addition.

Compound	staining of axon (myelin stain) ([1]; 50 μg/ml, added every 2 or 3 days, 12 wells, Sudan Black B stain)	concentration from which the expression of MAG was increased [2] [µmol/L]	time after addition at which the expression of MAG disappeared [3] [days]	time-course changes of MAG expression compared with positive control ascorbic acid (50 μg/ml) ([3]; up to 18 days)	time after addition at which expression of MAG was increased maximally ([3]; measured 3, 6, 9, 12, 15 and 18 days after addition)	effect on myelination of axon (conclusion) ([1]; 3 μmol/l)	wells in which axon was stained as deep as ascorbic acid addition group ([1]; 3 μmol/l, added every 2 or 3 days, Sudan Black B stain)
O=C1O[C@H]([C@@H](O)CO)C(O)=C1O [ascorbic acid, reference compound]	axon was stained deep in every well						
Cc1ccc(-n2ccnc2)cc1[C@H](O)c1c(C)cc(C(=O)O)cc1C [Y-128, (S)-4-[α-hydroxy-5-(1-imidazolyl)-2-methylbenzyl]-3,5-dimethylbenzoic acid]		≥ 3	18	the same as that by the positive control compound, ascorbic acid	6 days and 12 days	promoted myelination of axon	5 wells out of 12 wells
